Assays:
[1] = system: Human Pan T cells; test: IL-2 Release Detection Assay; format: cell-based; conditions: T-cell; for EC50: IL-2 in supernatant by ELISA, anti-CD3 pre-coated plate, 24 hours; for maximal fold induction: Top activation/DMSO control; for activity at 0.1 µM: curve value at 100 nM/DMSO control*100%, read-out: Activation % at 100 nM
Description: Isolate Human Pan T cells from PBMC according to T cell isolation kit (Stemcell, 17951). The suspend T cell in RPMI 1640 medium containing 10% FBS, 1% PS and 55 µM β-Mer at a density of 3*10^6 cells/well/3 ml are seeded into 6 well plate, recovered overnight at 37° C.&[…]. Harvest overnight recovered T cells are suspended in fresh RPMI1640 medium containing 10% FBS, 1% PS and 55 μM f-Mer, seeded 1*10^5/well/200 μl cells into the anti-CD3 pre-coated 96 well plate. Add dilutions of compounds into the cells and incubate at 37° C.&5% CO2 for 24 hours. IL-2 in cell supernatant was detected by ELISA Kit (R&D, DY202). Fit the compound EC50 in non-linear regression equation: Y=Bottom+(Top−Bottom)/(1+10^((Log EC50−X)*HillSlope)), X=compound concentration, Y=Activation %. Top and Bottom: Plateaus in same units as Y. Log EC50: same log units as X. Activation fold: Top activation/DMSO control. Activation % at 100 nM: Activation of non-linear regression equation curve at the concentration of 100 nM/DMSO control*100%.

[2] = target: T1, DGKA (Homo sapiens, UniProt P23743); test: DGKA Inhibition ADP-Glo Assay; format: biochemical; conditions: 40 μM ATP
T1 construct: purchased SignalChem D21-10BG
T1 sequence (P23743 whole entry): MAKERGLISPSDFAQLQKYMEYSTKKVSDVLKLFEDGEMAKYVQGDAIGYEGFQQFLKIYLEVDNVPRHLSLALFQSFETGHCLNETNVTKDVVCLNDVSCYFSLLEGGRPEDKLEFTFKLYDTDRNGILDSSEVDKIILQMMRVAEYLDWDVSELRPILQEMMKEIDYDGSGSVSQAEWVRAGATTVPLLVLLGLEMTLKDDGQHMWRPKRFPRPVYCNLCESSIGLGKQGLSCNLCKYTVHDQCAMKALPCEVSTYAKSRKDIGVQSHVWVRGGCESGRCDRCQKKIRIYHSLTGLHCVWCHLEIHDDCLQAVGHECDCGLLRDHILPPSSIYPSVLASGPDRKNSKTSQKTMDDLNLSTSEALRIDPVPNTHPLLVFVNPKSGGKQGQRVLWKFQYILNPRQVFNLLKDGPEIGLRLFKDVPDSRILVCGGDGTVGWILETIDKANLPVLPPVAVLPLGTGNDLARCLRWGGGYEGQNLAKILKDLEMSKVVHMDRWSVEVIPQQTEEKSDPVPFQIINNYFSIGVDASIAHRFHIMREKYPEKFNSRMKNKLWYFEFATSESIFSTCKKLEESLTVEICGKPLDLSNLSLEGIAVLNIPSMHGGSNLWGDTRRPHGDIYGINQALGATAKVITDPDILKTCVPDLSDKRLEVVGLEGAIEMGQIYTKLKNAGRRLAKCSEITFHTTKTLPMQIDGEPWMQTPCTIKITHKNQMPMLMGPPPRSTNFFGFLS
Description: The DGKA inhibition reactions were performed using ADP-Glo assay. The reactions were carried out in 50 mM HEPES, 100 mM NaCl, 10 mM MgCl2, 1 mM CaCl2, 0.005% TritonX-100 and 1 mM DTT as working solution (pH=7.5). 30 nL DMSO solution of each test compound (Top concentration […] with 10 point, 4-fold dilution series for each compound) were transferred to 384 well plate by Echo and 5 μL DGKA (SignalChem, D21-10BG) enzyme working solution at 2× final reaction concentration was added to each well. After incubated at 25° C. for 15 minutes, 5 μL substrate working solution contain 40 μM ATP (Promega, V915B) and 200 µM DLG (SignalChem, D430-59) were added to initiate reaction. After enzymatic reaction at 25° C. for 60 min, ADP Glo assay reagents (Promega, V9102) were added and luminescence was recorded using an EnVision following the instruction of manual. […] The IC50 value was calculated via a regression analysis of the inhibition rate.

Compound | EC50 [1] [nM] | IC50 [2] [nM] | maximal fold induction [1] | activity at 0.1 µM [1] [%]
Cn1c(=O)nc(N2CCOCc3c(C#CC4(C(F)(F)F)CC4)cccc32)c2cc(F)ccc21 [Example 9, 6-fluoro-1-methyl-4-(6-((1-(trifluoromethyl)cyclopropyl)ethynyl)-2,3-dihydrobenzo[e][1,4]oxazepin-1(5H)-yl)quinazolin-2(1H)-one] | 1370 | < 1 | 13.2 | 180
Cn1c(=O)nc(N2CCOCc3c(C#CC4(C(F)(F)F)CC4)cccc32)c2cc(Cl)c(N3CCOCC3)cc21 [Example 19, 6-chloro-1-methyl-7-morpholino-4-(6-((1-(trifluoromethyl)cyclopropyl)ethynyl)-2,3-dihydrobenzo[e][1,4]oxazepin-1(5H)-yl)quinazolin-2(1H)-one] | 2190 | 1 to 10 | 25.2 | 234
Cn1c(=O)nc(N2CCOCc3c(C#CC4(C(F)(F)F)CC4)cccc32)c2cc(C#N)c(O[C@@H]3CCOC3)cc21 [Example 24, (R)-1-methyl-2-oxo-7-((tetrahydrofuran-3-yl)oxy)-4-(6-((1-(trifluoromethyl)cyclopropyl)ethynyl)-2,3-dihydrobenzo[e][1,4]oxazepin-1(5H)-yl)-1,2-dihydroquinazoline-6-carbonitrile] | – | < 1 | – | –
Cn1c(=O)cc(N2CCOCc3c(C#CC4(C(F)(F)F)CC4)cccc32)c2nc(C#N)ccc21 [Example 2, 5-methyl-6-oxo-8-(6-((1-(trifluoromethyl)cyclopropyl)ethynyl)-2,3-dihydrobenzo[e][1,4]oxazepin-1(5H)-yl)-5,6-dihydro-1,5-naphthyridine-2-carbonitrile] | – | < 1 | – | –
Cn1c(=O)nc(N2CCOCc3c(C#CC4(C(F)(F)F)CC4)cccc32)c2cc(Cl)c(O[C@@H]3CCOC3)cc21 [Example 22, (R)-6-chloro-1-methyl-7-((tetrahydrofuran-3-yl)oxy)-4-(6-((1-(trifluoromethyl)cyclopropyl)ethynyl)-2,3-dihydrobenzo[e][1,4]oxazepin-1(5H)-yl)quinazolin-2(1H)-one] | – | < 1 | – | –
Cn1c(=O)cc(N2CCOCc3c(C#CC4(C(F)(F)F)CC4)cccc32)c2nc(Cl)ccc21 [Example 1, 6-chloro-1-methyl-4-(6-((1-(trifluoromethyl)cyclopropyl)ethynyl)-2,3-dihydrobenzo[e][1,4]oxazepin-1(5H)-yl)-1,5-naphthyridin-2(1H)-one] | – | < 1 | – | –
Cn1c(=O)nc(N2CCOCc3c(C#CC4(C(F)(F)F)CC4)cccc32)c2cc(Cl)c(O[C@H]3CCOC3)cc21 [Example 21, (S)-6-chloro-1-methyl-7-((tetrahydrofuran-3-yl)oxy)-4-(6-((1-(trifluoromethyl)cyclopropyl)ethynyl)-2,3-dihydrobenzo[e][1,4]oxazepin-1(5H)-yl)quinazolin-2(1H)-one] | – | < 1 | – | –
Cn1c(=O)nc(N2CCOCc3c(C#CC4(C(F)(F)F)CC4)cccc32)c2cc(C#N)c(OC3CCOCC3)cc21 [Example 26, 1-methyl-2-oxo-7-((tetrahydro-2H-pyran-4-yl)oxy)-4-(6-((1-(trifluoromethyl)cyclopropyl)ethynyl)-2,3-dihydrobenzo[e][1,4]oxazepin-1(5H)-yl)-1,2-dihydroquinazoline-6-carbonitrile] | – | < 1 | – | –
Cn1c(=O)nc(N2CCOCc3c(C#CC4(C(F)(F)F)CC4)cccc32)c2cc(Cl)c(OC3CCNC3)cc21 (stereo not shown) [Example 34, 6-chloro-1-methyl-7-(pyrrolidin-3-yloxy)-4-(6-((1-(trifluoromethyl)cyclopropyl)ethynyl)-2,3-dihydrobenzo[e][1,4]oxazepin-1(5H)-yl)quinazolin-2(1H)-one] | – | 1 to 10 | – | –
CN1CCC(Oc2cc3c(cc2Cl)c(N2CCOCc4c(C#CC5(C(F)(F)F)CC5)cccc42)nc(=O)n3C)C1 (stereo not shown) [Example 35, 6-chloro-1-methyl-7-((1-methylpyrrolidin-3-yl)oxy)-4-(6-((1-(trifluoromethyl)cyclopropyl)ethynyl)-2,3-dihydrobenzo[e][1,4]oxazepin-1(5H)-yl)quinazolin-2(1H)-one] | – | 1 to 10 | – | –
Cn1c(=O)nc(N2CCOCc3c(C#CC4(C(F)(F)F)CC4)cccc32)c2cc(C#N)c(O[C@H]3CCOC3)cc21 [Example 23, (S)-1-methyl-2-oxo-7-((tetrahydrofuran-3-yl)oxy)-4-(6-((1-(trifluoromethyl)cyclopropyl)ethynyl)-2,3-dihydrobenzo[e][1,4]oxazepin-1(5H)-yl)-1,2-dihydroquinazoline-6-carbonitrile] | – | < 1 | – | –

Now from value to molecule, other results behind:

EC50 [1] [nM] | IC50 [2] [nM] | Compound | maximal fold induction [1] | activity at 0.1 µM [1] [%]
265 | < 1 | Cn1c(=O)nc(N2CCOCc3c(C#CC4(C(F)(F)F)CC4)cccc32)c2cc(C#N)c(OCCO)cc21 [Example 14, 7-(2-hydroxyethoxy)-1-methyl-2-oxo-4-(6-((1-(trifluoromethyl)cyclopropyl)ethynyl)-2,3-dihydrobenzo[e][1,4]oxazepin-1(5H)-yl)-1,2-dihydroquinazoline-6-carbonitrile] | 15.3 | 639
62.8 | 1 to 10 | Cn1c(=O)nc(N2CCOCc3c(C#CC4(C(F)(F)F)CC4)cccc32)c2cc(Cl)c(OCCCN)cc21 [Example 20, 7-(3-aminopropoxy)-6-chloro-1-methyl-4-(6-((1-(trifluoromethyl)cyclopropyl)ethynyl)-2,3-dihydrobenzo[e][1,4]oxazepin-1(5H)-yl)quinazolin-2(1H)-one] | 1.7 | 173
– | 1 to 10 | Cn1c(=O)nc(N2CCOCc3c(C4CC4)cccc32)c2cc(Cl)c(OCCO)cc21 [Example 37, 6-chloro-4-(6-cyclopropyl-2,3-dihydrobenzo[e][1,4]oxazepin-1(5H)-yl)-7-(2-hydroxyethoxy)-1-methylquinazolin-2(1H)-one] | – | –
– | < 1 | Cn1c(=O)nc(N2CCOCc3c(C#CC4(C(F)(F)F)CC4)ccnc32)c2cc(Cl)c(OCCO)cc21 [Example 30, 6-chloro-7-(2-hydroxyethoxy)-1-methyl-4-(6-((1-(trifluoromethyl)cyclopropyl)ethynyl)-2,3-dihydropyrido[2,3-e][1,4]oxazepin-1(5H)-yl)quinazolin-2(1H)-one] | – | –
– | 1 to 10 | COc1cccc2c1COCCN2c1nc(=O)n(C)c2cc(OCCO)c(Cl)cc12 [Example 42, 6-chloro-7-(2-hydroxyethoxy)-4-(6-methoxy-2,3-dihydrobenzo[e][1,4]oxazepin-1(5H)-yl)-1-methylquinazolin-2(1H)-one] | – | –
– | < 1 | C#Cc1cccc2c1COCCN2c1nc(=O)n(C)c2cc(OCCO)c(Cl)cc12 [Example 39, 6-chloro-4-(6-ethynyl-2,3-dihydrobenzo[e][1,4]oxazepin-1(5H)-yl)-7-(2-hydroxyethoxy)-1-methylquinazolin-2(1H)-one] | – | –
– | 1 to 10 | CCc1cccc2c1COCCN2c1nc(=O)n(C)c2cc(OCCO)c(C#N)cc12 [Example 45, 4-(6-ethyl-2,3-dihydrobenzo[e][1,4]oxazepin-1(5H)-yl)-7-(2-hydroxyethoxy)-1-methyl-2-oxo-1,2-dihydroquinazoline-6-carbonitrile] | – | –
– | < 1 | Cn1c(=O)nc(N2CCOCc3c(C#CC4(C(F)(F)F)CC4)cccc32)c2cc(Cl)c(NCCO)cc21 [Example 15, 6-chloro-7-((2-hydroxyethyl)amino)-1-methyl-4-(6-((1-(trifluoromethyl)cyclopropyl)ethynyl)-2,3-dihydrobenzo[e][1,4]oxazepin-1(5H)-yl)quinazolin-2(1H)-one] | – | –
– | < 1 | Cn1c(=O)nc(N2CCOCc3c(C#CC4(C)CC4)cccc32)c2cc(Cl)c(OCCO)cc21 [Example 29, 6-chloro-7-(2-hydroxyethoxy)-1-methyl-4-(6-((1-methylcyclopropyl)ethynyl)-2,3-dihydrobenzo[e][1,4]oxazepin-1(5H)-yl)quinazolin-2(11H)-one] | – | –
– | 1 to 10 | Cn1c(=O)nc(N2CCOCc3ccccc32)c2cc(Cl)c(OCCO)cc21 [Example 36, 6-chloro-4-(2,3-dihydrobenzo[e][1,4]oxazepin-1(5H)-yl)-7-(2-hydroxyethoxy)-1-methylquinazolin-2(1H)-one] | – | –
– | < 1 | CC#Cc1cccc2c1COCCN2c1nc(=O)n(C)c2cc(OCCO)c(Cl)cc12 [Example 40, 6-chloro-7-(2-hydroxyethoxy)-1-methyl-4-(6-(prop-1-yn-1-yl)-2,3-dihydrobenzo[e][1,4]oxazepin-1(5H)-yl)quinazolin-2(1H)-one] | – | –

Reference: patent publication US20250214990A1, “DIACYLGLYCEROL KINASE (DGK) ALPHA INHIBITORS AND USES THEREOF” (Insilico Medicine IP Limited, priority 2022, published 2025)
